According to patent publication US3959256A:
≈ marks a conversion by molar mass, not a printed value. Read-outs that look alike come from different tables or passages of the source.

Tests used:
[1] = tested on: Streptococcus faecalis ATCC 8043; test: Minimum inhibitory concentration, standard serial dilution method; format: cell-based; conditions: Enterococcus faecalis, read-out: Minimum Inhibitory Concentrations
[2] = tested on: Streptococcus hemolyticus Cook; test: as above; format: cell-based; conditions: Streptococcus pyogenes, read-out: Minimum Inhibitory Concentrations
[3] = tested on: Corynebacterium diphtheriae Type gravis; test: as above; format: cell-based; conditions: read-out: Minimum Inhibitory Concentrations
Sarcina lutea = test: as above; format: cell-based; conditions: Micrococcus luteus, read-out: Minimum Inhibitory Concentrations
[4] = tested on: Bacillus anthracis No.119; test: microbe, parasite or virus in culture; format: cell-based; conditions: NO.119, 24 h, read-out: Minimum Inhibitory Concentrations
[5] = tested on: Staphylococcus aureus Terajima; test: Minimum inhibitory concentration, standard serial dilution method; format: cell-based; conditions: read-out: Minimum Inhibitory Concentrations
[6] = tested on: Diplococcus pneumoniae Type I; test: as above; format: cell-based; conditions: Streptococcus pneumoniae, read-out: Minimum Inhibitory Concentrations
[7] = tested on: Staphylococcus albus 1200A; test: as above; format: cell-based; conditions: read-out: Minimum Inhibitory Concentrations
[8] = tested on: Bacillus subtilis ATCC 6633; test: as above; format: cell-based; conditions: read-out: Minimum Inhibitory Concentrations
[9] = tested on: Staphylococcus aureus 209P; test: as above; format: cell-based; conditions: Brain Heart Infusion broth, 37°C, 24 hours, read-out: Minimum Inhibitory Concentrations
Experimental: (§1) The minimum inhibitory concentrations of these compounds to various microorganisms were determined according to a standard serial dilution method using Brain Heart Infusion broth as the incubation medium at 37°C, the estimation of the growth of the microorganisms being effected after 24 hours' incubation.

[10] = tested on: Streptococcus hemolyticus D-90; test: as above; format: cell-based; conditions: Streptococcus pyogenes, D90, Brain Heart Infusion broth, 37°C, 24 hours, read-out: Minimum Inhibitory Concentrations
Experimental: as §1

[11] = tested on: Diplococcus pneumoniae Type III; test: as above; format: cell-based; conditions: Streptococcus pneumoniae, Brain Heart Infusion broth, 37°C, 24 hours, read-out: Minimum Inhibitory Concentrations
Experimental: as §1

[12] = tested on: Corynebacterium diphtheriae Type intermedius; test: as above; format: cell-based; conditions: read-out: Minimum Inhibitory Concentrations
[13] = tested on: Staphylococcus aureus Smith; test: as above; format: cell-based; conditions: read-out: Minimum Inhibitory Concentrations
[14] = tested on: Bacillus subtilis PCI 219; test: as above; format: cell-based; conditions: read-out: Minimum Inhibitory Concentrations
mice = test: Acute toxicity in mice, intraperitoneal; conditions: 3,000 mg/kg intraperitoneally; one week after dosing; 3 mice per group
[15] = tested on: Streptococcus pyogenes D-58; test: Minimum inhibitory concentration, standard serial dilution method; format: cell-based; conditions: read-out: Minimum Inhibitory Concentrations
Staphylococcus aureus = test: Curative effect in therapeutic treatment of Staphylococcus aureus infections in mice; conditions: oral, immediately after intraperitoneal inoculation, 7th day, 10 mice per group
[16] = Streptococcus hemolyticus Cook, Brain Heart Infusion broth, 37°C, 24 hours
[17] = Corynebacterium diphtheriae Type gravis, Brain Heart Infusion broth, 37°C, 24 hours
[18] = Sarcina lutea, Brain Heart Infusion broth, 37°C, 24 hours
[19] = Staphylococcus aureus Terajima, Brain Heart Infusion broth, 37°C, 24 hours
[20] = Diplococcus pneumoniae Type I, Brain Heart Infusion broth, 37°C, 24 hours
[21] = ATCC6633, Bacillus subtilis ATCC 6633, Brain Heart Infusion broth, 37°C, 24 hours
[22] = Corynebacterium diphtheriae Type intermedius, Brain Heart Infusion broth, 37°C, 24 hours
[23] = PCI219, Bacillus subtilis PCI 219, Brain Heart Infusion broth, 37°C, 24 hours
[24] = Streptococcus pyogenes, D58, 24 h
[25] = Corynebacterium diphtheriae, 24 h

CCC(=O)OC1CC(=O)OC(C)CC=CC=CC(OC(C)=O)C(C)CC(CC=O)C(OC2OC(C)C(OC3CC(C)(OCOC(C)=O)C(OC(=O)CC)C(C)O3)C(N(C)C)C2O)C1OC (stereo not shown) [9-O-acetyl-3"-O-acetoxymethyl-SF-837, 9-O-acetyl-3"-O-acetoxymethyl-SF-837 substance]
MIC ([1]; ATCC8043, 24 h): 1.56 µg/mL (≈ 1.68 µM) | MIC [2, 16]: 0.19 µg/mL (≈ 0.205 µM) | MIC [3, 17]: 0.19 µg/mL (≈ 0.205 µM) | MIC (Sarcina lutea; [18]): 0.19 µg/mL (≈ 0.205 µM) | MIC [4]: 1.56 µg/mL (≈ 1.68 µM) | MIC [5, 19]: 3.13 µg/mL (≈ 3.37 µM) | MIC [6, 20]: 0.19 µg/mL (≈ 0.205 µM) | MIC ([7]; Staphylococcus, 1200A, 24 h): 1.56 µg/mL (≈ 1.68 µM) | MIC [8, 21]: 0.78 µg/mL (≈ 0.84 µM) | MIC [9]: 1.56 µg/mL (≈ 1.68 µM) | MIC [10]: 1.56 µg/mL (≈ 1.68 µM) | MIC [11]: 1.56 µg/mL (≈ 1.68 µM) | MIC [12, 22]: 0.19 µg/mL (≈ 0.205 µM) | MIC ([13]; Staphylococcus aureus, 24 h): 1.56 µg/mL (≈ 1.68 µM) | MIC [14, 23]: 0.78 µg/mL (≈ 0.84 µM) | Rate of the sacrificed mice (average) (mice): 0/3 | MIC [15, 24]: 1.56 µg/mL (≈ 1.68 µM)

CCC(=O)OCOC1(C)CC(OC2C(C)OC(OC3C(CC=O)CC(C)C(OC(C)=O)C=CC=CCC(C)OC(=O)CC(OC(=O)CC)C3OC)C(O)C2N(C)C)OC(C)C1OC(=O)CC (stereo not shown) [9-O-acetyl-3"-O-propionyloxymethyl-SF-837 substance]
MIC ([1]; ATCC8043, 24 h): 1.56 µg/mL (≈ 1.66 µM) | MIC [2, 16]: 0.19 µg/mL (≈ 0.202 µM) | MIC [3, 17]: 0.19 µg/mL (≈ 0.202 µM) | MIC (Sarcina lutea; [18]): 0.19 µg/mL (≈ 0.202 µM) | MIC [4]: 1.56 µg/mL (≈ 1.66 µM) | MIC [5, 19]: 3.13 µg/mL (≈ 3.32 µM) | MIC [6, 20]: 0.19 µg/mL (≈ 0.202 µM) | MIC ([7]; Staphylococcus, 1200A, 24 h): 1.56 µg/mL (≈ 1.66 µM) | Rate of Surviving Mice (in percentage) (Staphylococcus aureus; 100 mg/kg): 67 percentage | Rate of Surviving Mice (in percentage) (Staphylococcus aureus; 200 mg/kg): 100 percentage | Rate of Surviving Mice (in percentage) (Staphylococcus aureus; 400 mg/kg): 100 percentage | MIC [8, 21]: 0.78 µg/mL (≈ 0.828 µM) | MIC [9]: 1.56 µg/mL (≈ 1.66 µM) | MIC [10]: 1.56 µg/mL (≈ 1.66 µM) | MIC [11]: 1.56 µg/mL (≈ 1.66 µM) | MIC [12, 22]: 0.19 µg/mL (≈ 0.202 µM) | MIC ([13]; Staphylococcus aureus, 24 h): 1.56 µg/mL (≈ 1.66 µM) | MIC [14, 23]: 0.39 µg/mL (≈ 0.414 µM) | Rate of the sacrificed mice (average) (mice): 0/3 | MIC [15, 24]: 1.56 µg/mL (≈ 1.66 µM)

CCC(=O)OC1C=CC=CCC(C)OC(=O)CC(OC(=O)CC)C(OC)C(OC2OC(C)C(OC3CC(C)(OCOC(C)=O)C(OC(=O)CC)C(C)O3)C(N(C)C)C2O)C(CC=O)CC1C (stereo not shown) [9-O-propionyl-3"-O-acetoxymethyl-SF-837, 9-O-propionyl-3"-O-acetoxymethyl-SF-837 substance]
MIC ([1]; ATCC8043, 24 h): 1.56 µg/mL (≈ 1.66 µM) | MIC [2, 16]: 0.19 µg/mL (≈ 0.202 µM) | MIC [3, 17]: 0.19 µg/mL (≈ 0.202 µM) | MIC (Sarcina lutea; [18]): 0.19 µg/mL (≈ 0.202 µM) | MIC [4]: 1.56 µg/mL (≈ 1.66 µM) | MIC [5, 19]: 3.13 µg/mL (≈ 3.32 µM) | MIC [6, 20]: 0.19 µg/mL (≈ 0.202 µM) | MIC ([7]; Staphylococcus, 1200A, 24 h): 1.56 µg/mL (≈ 1.66 µM) | Rate of Surviving Mice (in percentage) (Staphylococcus aureus; 100 mg/kg): 33 percentage | Rate of Surviving Mice (in percentage) (Staphylococcus aureus; 200 mg/kg): 56 percentage | Rate of Surviving Mice (in percentage) (Staphylococcus aureus; 400 mg/kg): 100 percentage | MIC [8, 21]: 0.78 µg/mL (≈ 0.828 µM) | MIC [9]: 1.56 µg/mL (≈ 1.66 µM) | MIC [10]: 1.56 µg/mL (≈ 1.66 µM) | MIC [11]: 1.56 µg/mL (≈ 1.66 µM) | MIC [12, 22]: 0.19 µg/mL (≈ 0.202 µM) | MIC ([13]; Staphylococcus aureus Smith, Brain Heart Infusion broth, 37°C, 24 hours): 3.13 µg/mL (≈ 3.32 µM) | MIC [14, 23]: 0.78 µg/mL (≈ 0.828 µM) | Rate of the sacrificed mice (average) (mice): 0/3 | MIC ([15]; D58, Streptococcus pyogenes D-58, Brain Heart Infusion broth, 37°C, 24 hours): 3.13 µg/mL (≈ 3.32 µM)

CCC(=O)OCOC1(C)CC(OC2C(C)OC(OC3C(CC=O)CC(C)C(OC(=O)CC)C=CC=CCC(C)OC(=O)CC(OC(=O)CC)C3OC)C(O)C2N(C)C)OC(C)C1OC(=O)CC (stereo not shown) [9-O-propionyl-3"-O-propionyloxymethyl-SF-837 substance]
MIC ([1]; ATCC8043, Streptococcus faecalis ATCC 8043, Brain Heart Infusion broth, 37°C, 24 hours): 3.13 µg/mL (≈ 3.27 µM) | MIC ([2]; 24 h): 1.56 µg/mL (≈ 1.63 µM) | MIC [3, 17]: 0.19 µg/mL (≈ 0.199 µM) | MIC (Sarcina lutea; [18]): 0.19 µg/mL (≈ 0.199 µM) | MIC [4]: 1.56 µg/mL (≈ 1.63 µM) | MIC [5, 19]: 3.13 µg/mL (≈ 3.27 µM) | MIC [6, 20]: 0.19 µg/mL (≈ 0.199 µM) | MIC ([7]; Staphylococcus albus 1200A, Brain Heart Infusion broth, 37°C, 24 hours): 3.13 µg/mL (≈ 3.27 µM) | Rate of Surviving Mice (in percentage) (Staphylococcus aureus; 100 mg/kg): 33 percentage | Rate of Surviving Mice (in percentage) (Staphylococcus aureus; 200 mg/kg): 56 percentage | Rate of Surviving Mice (in percentage) (Staphylococcus aureus; 400 mg/kg): 100 percentage | MIC [8, 21]: 0.78 µg/mL (≈ 0.816 µM) | MIC [9]: 1.56 µg/mL (≈ 1.63 µM) | MIC [10]: 1.56 µg/mL (≈ 1.63 µM) | MIC [11]: 1.56 µg/mL (≈ 1.63 µM) | MIC [12, 22]: 0.19 µg/mL (≈ 0.199 µM) | MIC ([13]; Staphylococcus aureus, 24 h): 1.56 µg/mL (≈ 1.63 µM) | MIC [14, 23]: 0.78 µg/mL (≈ 0.816 µM) | Rate of the sacrificed mice (average) (mice): 0/3 | MIC [15, 24]: 1.56 µg/mL (≈ 1.63 µM)

CCC(=O)OC1CC(=O)OC(C)CC=CC=CC(O)C(C)CC(CC=O)C(OC2OC(C)C(OC3CC(C)(O)C(OC(=O)CC)C(C)O3)C(N(C)C)C2O)C1OC (stereo not shown) [SF-837 (the free base), reference compound]
MIC ([1]; ATCC8043, 24 h): 1.56 µg/mL (≈ 1.92 µM) | MIC ([2]; 24 h): 0.09 µg/mL (≈ 0.111 µM) | MIC [3, 25]: 0.19 µg/mL (≈ 0.233 µM) | MIC (Sarcina lutea; 24 h): 0.09 µg/mL (≈ 0.111 µM) | MIC [4]: 0.78 µg/mL (≈ 0.958 µM) | MIC ([5]; Staphylococcus aureus, 24 h): 1.56 µg/mL (≈ 1.92 µM) | MIC ([6]; 24 h): 0.04 µg/mL (≈ 0.0491 µM) | MIC ([7]; Staphylococcus, 1200A, 24 h): 0.78 µg/mL (≈ 0.958 µM) | Rate of Surviving Mice (in percentage) (Staphylococcus aureus; 100 mg/kg): 0 percentage | Rate of Surviving Mice (in percentage) (Staphylococcus aureus; 200 mg/kg): 45 percentage | Rate of Surviving Mice (in percentage) (Staphylococcus aureus; 400 mg/kg): 67 percentage | MIC ([8]; Bacillus subtilis, ATCC6633, 24 h): 1.56 µg/mL (≈ 1.92 µM) | MIC [9]: 0.78 µg/mL (≈ 0.958 µM) | MIC [10]: 1.56 µg/mL (≈ 1.92 µM) | MIC [11]: 0.04 µg/mL (≈ 0.0491 µM) | MIC [12, 25]: 0.19 µg/mL (≈ 0.233 µM) | MIC ([13]; Staphylococcus aureus, 24 h): 0.19 µg/mL (≈ 0.233 µM) | MIC ([14]; Bacillus subtilis, PCI219, 24 h): 0.78 µg/mL (≈ 0.958 µM) | Rate of the sacrificed mice (average) (mice): 3/3 | MIC [15, 24]: 0.09 µg/mL (≈ 0.111 µM)
